Values of other authors as cited in patent US20120058932A1, “ACTIVE INGREDIENT-PEPTIDE CONSTRUCT FOR EXTRACELLULAR CONCENTRATION” (MAX PLANCK-GESELLSCHAFT ZUR FORDERUNG DER WISSENSCHAFTEN …, priority 2008, published 2012).

Conditions: blood cells vs plasma

SMILES: C/C=C/C[C@@H](C)[C@@H](O)[C@H]1C(=O)N[C@@H](CC)C(=O)N(C)CC(=O)N(C)[C@@H](CC(C)C)C(=O)N[C@@H](C(C)C)C(=O)N(C)[C@@H](CC(C)C)C(=O)N[C@@H](C)C(=O)N[C@H](COCCO)C(=O)N(C)[C@@H](CC(C)C)C(=O)N(C)[C@@H](CC(C)C)C(=O)N(C)[C@@H](C(C)C)C(=O)N1C [SDZ IMM 125]
- Concentration in blood cells relative to the surrounding plasma: approximately 8 ×
